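Where inhibition never reached the appropriate level, the endpoint shown equals the highest concentration tested. Otherwise, values were interpolated linearly from a five-concentration, 48-hour dose response in 96-well plates. GI50 marks 50% less growth. TGI: concentration producing complete growth inhibition.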
Tests used:
Assay in all cases: growth of human tumour cells (NCI), 48 h
HT29 colon = tested on: HT29 colon
DU-145 prostate = tested on: DU-145 prostate
SK-MEL-28 melanoma = tested on: SK-MEL-28 melanoma
U251 CNS = tested on: U251 CNS
UO-31 renal = tested on: UO-31 renal
LOX IMVI melanoma = tested on: LOX IMVI melanoma
MDA-MB-231 breast = tested on: MDA-MB-231 breast
TK-10 renal = tested on: TK-10 renal
NCI-H460 lung = tested on: NCI-H460 lung
SK-MEL-5 melanoma = tested on: SK-MEL-5 melanoma

| Structure (SMILES) | TGI (HT29 colon) [µM] | TGI (DU-145 prostate) [µM] | TGI (SK-MEL-28 melanoma) [µM] | TGI (U251 CNS) [µM] | TGI (UO-31 renal) [µM] | TGI (LOX IMVI melanoma) [µM] | TGI (MDA-MB-231 breast) [µM] | TGI (TK-10 renal) [µM] | TGI (NCI-H460 lung) [µM] | TGI (SK-MEL-5 melanoma) [µM] | GI50 (HT29 colon) [µM] | GI50 (UO-31 renal) [µM] | GI50 (LOX IMVI melanoma) [µM] |
| --- | --- | --- | --- | --- | --- | --- | --- | --- | --- | --- | --- | --- | --- |
| CCOC(=O)C1CCCCN1CCc1c[nH]c2ccccc12 (stereo not drawn) | > 100 | > 100 | > 100 | > 100 | > 100 | > 100 | > 100 | > 100 | > 100 | > 100 |  |  |  |
| C/C(=N\Nc1nc2ccccc2[nH]1)c1cc2ccccc2cn1 | 1.02 | 1.91 | 0.429 | 0.863 | 1.38 | 1.48 | 1.97 | 5.16 | 1.45 | 1.6 |  |  |  |
| O=C1CC(n2cccc2)c2c(Br)sc(Br)c21 (stereo not drawn) | 32.1 | 31.8 | 41.2 | 28.4 | 5.66 | 21.7 | 30.9 | 45.4 | 36.6 | 29.6 |  |  |  |
| CSc1ccc(/C=C2\N=C(c3ccccc3)N(/N=C/c3cc4cc(C)ccc4nc3Cl)C2=O)cc1 | 62.1 | 36 | 37.6 | 51.2 | 33.4 | 44.6 | 47.6 | 33.5 | 57.7 | 32.9 |  |  |  |
| Cc1nc2ccc(Cl)cc2c2c1CCN2c1ccccc1 | > 100 | 63.8 | 28.5 | 35.2 | 23.8 | 22.3 | 13.7 | 37.7 | 23.9 | 20.7 |  |  |  |
| O=[N+]([O-])c1ccc(C(Nc2ccccc2)c2ccc3cccnc3c2O)cc1 (stereo not drawn) | > 100 | > 100 | > 100 | 25.2 | 32.3 | 61 | 59.9 | 68.8 | > 60.6 | 22.3 |  |  |  |
| O=C(c1ccco1)N(C(=S)OC12CC3CC(CC(C3)C1)C2)c1ccccc1 | > 100 | > 100 | > 100 | 59.5 | 98.7 | 86.2 | > 100 | > 100 | > 100 | 35.5 |  |  |  |
| c1ccc(-c2nnn(CCN3CCCCC3)n2)cc1 | > 100 | > 100 | > 100 | > 100 | > 100 | > 100 | > 100 | > 100 | > 100 | > 100 |  |  |  |
| C=C1C(=O)O[C@H]2[C@H]3O[C@@H](C[C@@H]12)[C@](C)(O)CC[C@@H]1O[C@@]1(C)CCC[C@H]3C | 68.6 | 33.4 | > 100 | 84.5 | 69.3 | 35.7 | 65.8 | 32.6 | 89 | 33.5 |  |  |  |
| Cc1ccccc1OC(C)C(=O)NN1C(=O)CC(=O)N(c2ccccc2)C1=S (stereo not drawn) | > 100 | > 100 | > 100 | > 100 | > 100 | > 100 | > 100 | > 100 | > 100 | > 100 |  |  |  |
| C=CC1CN2CCC1CC2C(O)c1ccnc2ccccc12 (stereo not drawn) | > 100 | > 100 | > 100 | > 100 | > 100 | > 100 | > 100 | > 100 | > 100 | > 100 | > 100 | 36.8 | > 100 |
| NC(=O)Cc1nc2c(=O)[nH]cnc2n1C1OC(CO)C(O)C1O (stereo not drawn) | > 100 | > 100 | > 100 | > 100 | > 100 | > 100 | > 100 | > 100 | > 100 | > 100 |  |  |  |
| Cc1nc(-c2cc3cc(Cl)ccc3oc2=O)cc2c1c(=O)oc1ccc(Cl)cc12 | > 100 | > 100 | > 100 | > 100 | > 100 | > 100 | > 100 | > 100 | > 100 | > 100 |  |  |  |
| NC(=O)CO/N=C1/C(c2c(O)[nH]c3ccccc23)=Nc2ccccc21 | > 100 | > 100 | > 100 | > 100 | > 100 | > 100 | > 100 | > 100 | > 100 | > 100 |  |  |  |
| CC(=O)/C(=C\c1ccc(Cl)c(Cl)c1)C(=O)C(C)CN(C)C (stereo not drawn) | 24.1 | 17.3 | 21 | 12.9 | 14.5 | 6.14 | 27.3 | 5.82 | 48.9 | 25.3 |  |  |  |
| CC(C)OC1OC(CO)C(O)CC1n1cc(F)c(=O)[nH]c1=O (stereo not drawn) | > 100 | > 100 | > 100 | > 100 | > 100 | > 100 | > 100 | > 100 | > 100 | > 100 |  |  |  |
| NCCC1CN(C(=O)OCc2ccccc2)c2ccccc21 (stereo not drawn) | 25.8 | 48.9 | 36 | 32.4 | 27.3 | 17.1 | 46.6 | > 54.8 | 43.4 | 24.7 |  |  |  |
| CCOC(=O)C1(C(F)(F)F)N=C(CC)OC(N2CCOCC2)=N1 (stereo not drawn) | > 100 | > 100 | > 100 | > 100 | > 100 | > 100 | > 100 | > 100 | > 100 | > 100 |  |  |  |
| CCOC(=O)c1cnccc1CC1(C#N)c2ccccc2C=CN1C(=O)c1ccccc1 (stereo not drawn) | 36 | > 100 | > 100 | > 100 | 91.1 | 72.9 | > 100 | > 100 | 89.5 | 37.8 |  |  |  |
| CN(C)c1ccc(/C=C2\N=C(c3ccccc3)N(c3ccc4c(c3)Sc3cc(N5C(=O)/C(=C/c6ccc(N(C)C)cc6)N=C5c5ccccc5)ccc3N4)C2=O)cc1 | > 100 | 76.1 | > 100 | 29 | 34.8 | 40.9 | 41.5 | 31.1 | 62.3 | 32.1 |  |  |  |
| N/C(=N\Nc1ccc(S(N)(=O)=O)cc1)c1cnccn1 | > 100 | > 100 | > 100 | > 100 | > 100 | > 100 | > 100 | > 100 | > 100 | > 100 |  |  |  |
| N#Cc1nc(C#N)n(C(=O)c2ccccc2)c1NC(=O)c1ccccc1 | > 100 | > 100 | > 100 | > 100 | > 100 | > 100 | > 100 | > 100 | > 100 | > 100 |  |  |  |
| CN1C(=O)C(O)CC1c1cccc(C(F)(F)F)c1 (stereo not drawn) | > 100 | > 100 | > 100 | > 100 | > 100 | > 100 | > 100 | > 100 | > 100 | > 100 |  |  |  |
| CCCNc1ncnc2[nH]ncc12 | > 100 | > 100 | > 100 | > 100 | > 100 | > 100 | > 100 | > 100 | > 100 | > 100 |  |  |  |
| CCOP(=O)(OCC)/C(C#N)=C/c1cccn1Cc1ccccc1 | > 100 | > 100 | 39.5 | 57.9 | 99.7 | 53 | 57.5 | > 100 | > 100 | 32.5 |  |  |  |
| COc1ccc(-c2cc(C(O)C3CCCCN3)c3ccccc3n2)cc1 (stereo not drawn) | 11.5 | 20.5 | 5.49 | 14.5 | 8.54 | 16 | 9.83 | 23.7 | 10.4 | 17.2 |  |  |  |
| NCCOCC(N)C(=O)O (stereo not drawn) | > 100 | > 100 | > 100 | > 100 | > 100 | > 100 | > 100 | > 100 | > 100 | > 100 |  |  |  |
| Cc1cc2c(c(=O)n1C)SCC2 | > 100 | > 100 | > 100 | > 100 | > 100 | > 100 | > 100 | > 100 | > 100 | > 100 |  |  |  |
| Nc1ncnc2c1ncn2Cc1cccc(CCl)c1 | > 100 | 27.1 | 51.1 | 32.5 | 32.5 | 71.7 | 34 | 34.4 | 29.9 | 30.4 |  |  |  |
